Source: patent US20240116985A1, “STAPLED PEPTIDES AND METHODS THEREOF” (priority 2020, published 2024)
Converted amounts (≈) assume the structure as drawn.

Assay: Solubility in PBS
Assay type: physicochemical
Details: for solubility at 15 min: Solubility (uM)
Method: After ultracentrifugation of the PBS solution, the supernatant was analyzed by HPLC and compared to an HPLC injection 50 μM peptide DMSO solution. Solubility was determined by: [(Area of PBS peak)/(Area of DMSO peak)]*50 uM.

| SMILES | Solubility | solubility at 15 min |
| --- | --- | --- |
| CC(=O)N1CCC[C@]12CC=CCCCC1(CCCC=CCCCOC(=O)N3CC[C@@](C(=O)N[C@@H](Cc4ccccc4)C(=O)N[C@@H](Cc4ccc5ccccc5c4)C(=O)N[C@@H](CCC(N)=O)C(N)=O)(C3)NC(=O)[C@H](CC(C)C)NC(=O)[C@H](Cc3ccccc3)NC(=O)[C@H](C)NC(=O)[C@H](C)NC(=O)[C@H]([C@@H](C)O)NC(=O)[C@H](CC(=O)O)NC1=O)NC(=O)[C@H](CC(C)(C)C)NC(=O)[C@H](CC(N)=O)NC2=O (single isomer, unassigned) [I-1292, Ac-PL3-Asn-Npg-B5-Asp-Thr-Ala-Ala-Phe-Leu-PyrS2-Phe-2NapA-Gln-NH2] | 10 µM (≈ 18.9 µg/mL) | – |
| CC(=O)N1CCC[C@]12CC=CCCCC1(CCCC=CCCCOC(=O)N3CC[C@@](C(=O)N[C@@H](Cc4ccccc4)C(=O)N[C@@H](Cc4csc5ccccc45)C(=O)N[C@@H](CCC(N)=O)C(N)=O)(C3)NC(=O)[C@H](CC(C)C)NC(=O)[C@H](Cc3ccccc3)NC(=O)[C@H](C)NC(=O)[C@H](C)NC(=O)[C@H]([C@@H](C)O)NC(=O)[C@H](CC(N)=O)NC1=O)NC(=O)[C@H](C)NC(=O)[C@H](CC(=O)O)NC2=O (single isomer, unassigned) [I-1295, Ac-PL3-Asp-Ala-B5-Asn-Thr-Ala-Ala-Phe-Leu-PyrS2-Phe-BztA-Gln-NH2] | 10 µM (≈ 18.4 µg/mL) | – |
| CC(=O)N1CCC[C@]12CC=CCCCC1(CCCC=CCCCOC(=O)N3CC[C@@](C(=O)N[C@@H](Cc4ccccc4)C(=O)N[C@@H](Cc4csc5ccccc45)C(=O)N[C@H](C(N)=O)[C@@H](C)O)(C3)NC(=O)[C@H](CC(C)C)NC(=O)[C@H](Cc3ccccc3)NC(=O)[C@H](C)NC(=O)[C@H](C)NC(=O)[C@H]([C@@H](C)O)NC(=O)[C@H](CC(N)=O)NC1=O)NC(=O)[C@H](CC(C)(C)C)NC(=O)[C@H](CC(=O)O)NC2=O (single isomer, unassigned) [I-1299, Ac-PL3-Asp-Npg-B5-Asn-Thr-Ala-Ala-Phe-Leu-PyrS2-Phe-BztA-Thr-NH2] | 10 µM (≈ 18.7 µg/mL) | – |
| CC(=O)N1CCC[C@]12CC=CCCCC1(CCCC=CCCCOC(=O)N3CC[C@@](C(=O)N[C@@H](Cc4ccsc4)C(=O)N[C@@H](Cc4csc5ccccc45)C(=O)N[C@@H](CCC(N)=O)C(N)=O)(C3)NC(=O)[C@H](CC(N)=O)NC(=O)[C@H](Cc3ccccc3)NC(=O)[C@H](C)NC(=O)[C@H](C)NC(=O)[C@H](CC(=O)O)NC(=O)[C@H](CCN)NC1=O)NC(=O)[C@H](CC(C)(C)C)NC(=O)[C@H](CC(=O)O)NC2=O (stereo partly drawn) [I-1216, Ac-PL3-Asp-Npg-B5-Dab-Asp-Ala-Ala-Phe-Asn-PyrS2-3Thi-BztA-Gln-NH2] | 10 µM (≈ 19 µg/mL) | – |
| CC(=O)N1CCC[C@]12CC=CCCCC1(CCCC=CCCCOC(=O)N3CC[C@@](C(=O)N[C@@H](Cc4ccsc4)C(=O)N[C@@H](Cc4csc5ccccc45)C(=O)N[C@@H](CCC(N)=O)C(N)=O)(C3)NC(=O)[C@H](CC(C)C)NC(=O)[C@H](Cc3ccccc3)NC(=O)[C@H](C)NC(=O)[C@H](C)NC(=O)[C@H](CC(=O)O)NC(=O)[C@H](CCN)NC1=O)NC(=O)[C@H](CC(C)(C)C)NC(=O)[C@H](CC(=O)O)NC2=O (stereo partly drawn) [I-1217, Ac-PL3-Asp-Npg-B5-Dab-Asp-Ala-Ala-Phe-Leu-PyrS2-3Thi-BztA-Gln-NH2] | – | 15 µM (≈ 28.5 µg/mL) |
| CC(=O)N1CCC[C@]12CC=CCCCC1(CCCC=CCCCOC(=O)N3CC[C@@](C(=O)N[C@@H](Cc4ccccc4)C(=O)N[C@@H](Cc4cccc5ccccc45)C(=O)N[C@@H](CCC(N)=O)C(N)=O)(C3)NC(=O)[C@H](CC(C)C)NC(=O)[C@H](Cc3ccccc3)NC(=O)[C@H](C)NC(=O)[C@H](C)NC(=O)[C@H]([C@@H](C)O)NC(=O)[C@H](CC(=O)O)NC1=O)NC(=O)[C@H](CC(C)(C)C)NC(=O)[C@H](CC(N)=O)NC2=O (stereo partly drawn) [I-1290, Ac-PL3-Asn-Npg-B5-Asp-Thr-Ala-Ala-Phe-Leu-PyrS2-Phe-1NapA-Gln-NH2] | 10 µM (≈ 18.9 µg/mL) | – |
| CC(=O)N1CCC[C@]12CC=CCCCC1(CCCC=CCCCOC(=O)N3CC[C@@](C(=O)N[C@@H](Cc4ccccc4)C(=O)N[C@@H](Cc4csc5ccccc45)C(=O)N[C@@H](CCC(N)=O)C(N)=O)(C3)NC(=O)[C@H](CC(C)C)NC(=O)[C@H](Cc3ccccc3)NC(=O)[C@H](C)NC(=O)[C@H](C)NC(=O)[C@H]([C@@H](C)O)NC(=O)[C@H](CC(N)=O)NC1=O)NC(=O)[C@H](CC(C)(C)C)NC(=O)[C@H](CC(=O)O)NC2=O (stereo partly drawn) [I-1294, Ac-PL3-Asp-Npg-B5-Asn-Thr-Ala-Ala-Phe-Leu-PyrS2-Phe-BztA-Gln-NH2] | 10 µM (≈ 19 µg/mL) | – |
| CC(=O)N1CCC[C@]12CC=CCCCC1(CCCC=CCCCOC(=O)N3CC[C@@](C(=O)N[C@@H](Cc4ccccc4)C(=O)N[C@@H](Cc4cccc5ccccc45)C(=O)N[C@@H](CCC(N)=O)C(N)=O)(C3)NC(=O)[C@H](CC(C)C)NC(=O)[C@H](Cc3ccccc3)NC(=O)[C@H](C)NC(=O)[C@H](C)NC(=O)[C@H]([C@@H](C)O)NC(=O)[C@H](CC(N)=O)NC1=O)NC(=O)[C@H](CC(C)(C)C)NC(=O)[C@H](CC(=O)O)NC2=O (stereo partly drawn) [I-1298, Ac-PL3-Asp-Npg-B5-Asn-Thr-Ala-Ala-Phe-Leu-PyrS2-Phe-1NapA-Gln-NH2] | 10 µM (≈ 18.9 µg/mL) | – |

Other lines, results leading:

| Solubility | solubility at 15 min | SMILES |
| --- | --- | --- |
| 10 µM (≈ 18.7 µg/mL) | – | CC(=O)N1CCC[C@]12CC=CCCCC1(CCCC=CCCCOC(=O)N3CC[C@@](C(=O)N[C@@H](Cc4ccccc4)C(=O)N[C@@H](Cc4csc5ccccc45)C(=O)N[C@H](C(N)=O)[C@@H](C)O)(C3)NC(=O)[C@H](CC(C)C)NC(=O)[C@H](Cc3ccccc3)NC(=O)[C@H](C)NC(=O)[C@H](C)NC(=O)[C@H]([C@@H](C)O)NC(=O)[C@H](CC(N)=O)NC1=O)NC(=O)[C@H](CC(C)(C)C)NC(=O)[C@H](CC(=O)O)NC2=O (single isomer, unassigned) [I-1300, Ac-PL3-Asp-Npg-B5-Asn-Thr-Ala-Ala-Phe-Leu-PyrS2-Phe-BztA-Thr-NH2] |
| – | 25 µM (≈ 49.8 µg/mL) | CC(=O)N1CCC[C@]12CC=CCCCC1(CCCC=CCCCOC(=O)N3CC[C@@](C(=O)N[C@@H](Cc4ccccc4Br)C(=O)N[C@@H](Cc4csc5ccccc45)C(=O)N[C@@H](CCC(N)=O)C(N)=O)(C3)NC(=O)[C@H](CC(C)C)NC(=O)[C@H](Cc3ccccc3)NC(=O)[C@H](C)NC(=O)[C@H](C)NC(=O)[C@H](CC(=O)O)NC(=O)[C@H](CC(=O)O)NC1=O)NC(=O)[C@H](CC(C)(C)C)NC(=O)[C@H](CC(=O)O)NC2=O (stereo partly drawn) [I-1324, PL3-Asp-Npg-B5-Asp-Asp-Ala-Ala-Phe-Leu-PyrS2-2BrF-BztA-Gln-NH2] |
| – | 12 µM (≈ 24.3 µg/mL) | CC(=O)N1CCC[C@]12CC=CCCCC1(CCCC=CCCCOC(=O)N3CC[C@@](C(=O)N[C@@H](Cc4ccccc4Br)C(=O)N[C@@H](Cc4csc5ccccc45)C(=O)N[C@@H](CCC(N)=O)C(N)=O)(C3)NC(=O)[C@H](Cc3ccccc3)NC(=O)[C@H](Cc3ccccc3)NC(=O)[C@H](C)NC(=O)[C@H](C)NC(=O)[C@H](CC(=O)O)NC(=O)[C@H](CC(=O)O)NC1=O)NC(=O)[C@H](CC(C)(C)C)NC(=O)[C@H](CC(=O)O)NC2=O (stereo partly drawn) [I-1325, PL3-Asp-Npg-B5-Asp-Asp-Ala-Ala-Phe-Phe-PyrS2-2BrF-BztA-Gln-NH2] |
| – | 39 µM (≈ 75.7 µg/mL) | COc1ccccc1C[C@H](NC(=O)[C@]12CCN(C1)C(=O)OCCCC=CCCCC1(CCCC=CC[C@]3(CCCN3C(C)=O)C(=O)N[C@@H](CC(=O)O)C(=O)N[C@@H](CC(C)(C)C)C(=O)N1)C(=O)N[C@@H](CC(=O)O)C(=O)N[C@@H](CC(=O)O)C(=O)N[C@@H](C)C(=O)N[C@@H](C)C(=O)N[C@@H](Cc1ccccc1)C(=O)N[C@@H](CC(C)C)C(=O)N2)C(=O)N[C@@H](Cc1csc2ccccc12)C(=O)N[C@@H](CCC(N)=O)C(N)=O (stereo partly drawn) [I-1327, PL3-Asp-Npg-B5-Asp-Asp-Ala-Ala-Phe-Leu-PyrS2-2OMeF-BztA-Gln-NH2] |
